Assay results published in BindingDB's records for doi:10.1021/acs.jmedchem.8b00250 (University of Liege, 2018).
pEC50: −log10 of the molar value.

Biological target: Glutamate receptor 2 (Homo sapiens, UniProt P42262)
Assay: Positive allosteric modulation of GluA2Q flop isoform (unknown origin) expressed in HEK293 cells assessed as increase in L-glutamate induced calcium flux after 1 hr by fluo-4AM dye-based fluorescence assay

Sequence of Glutamate receptor 2 (P42262 whole entry, canonical isoform): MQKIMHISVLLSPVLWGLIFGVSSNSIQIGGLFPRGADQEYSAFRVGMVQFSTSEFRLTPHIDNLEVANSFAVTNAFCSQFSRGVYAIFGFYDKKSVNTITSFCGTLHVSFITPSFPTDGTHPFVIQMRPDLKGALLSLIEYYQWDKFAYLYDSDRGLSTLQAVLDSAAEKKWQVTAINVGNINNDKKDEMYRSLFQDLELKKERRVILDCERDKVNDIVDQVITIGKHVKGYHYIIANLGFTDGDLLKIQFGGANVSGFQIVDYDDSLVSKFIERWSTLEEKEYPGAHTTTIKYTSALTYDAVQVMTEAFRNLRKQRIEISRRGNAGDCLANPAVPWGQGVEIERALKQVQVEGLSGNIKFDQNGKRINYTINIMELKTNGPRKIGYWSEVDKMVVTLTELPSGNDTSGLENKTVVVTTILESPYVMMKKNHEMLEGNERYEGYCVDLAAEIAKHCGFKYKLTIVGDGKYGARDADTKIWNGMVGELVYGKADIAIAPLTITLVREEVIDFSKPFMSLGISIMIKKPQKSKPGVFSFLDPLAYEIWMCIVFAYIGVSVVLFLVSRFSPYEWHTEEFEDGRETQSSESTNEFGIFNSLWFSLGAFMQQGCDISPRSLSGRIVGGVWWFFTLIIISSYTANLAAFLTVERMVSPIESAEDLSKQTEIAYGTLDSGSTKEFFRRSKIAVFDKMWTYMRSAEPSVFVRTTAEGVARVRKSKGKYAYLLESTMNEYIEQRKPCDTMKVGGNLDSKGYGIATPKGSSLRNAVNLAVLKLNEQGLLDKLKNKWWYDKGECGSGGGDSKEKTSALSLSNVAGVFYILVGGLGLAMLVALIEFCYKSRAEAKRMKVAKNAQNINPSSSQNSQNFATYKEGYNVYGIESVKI

pEC50: 8.89
SMILES: O=S1(=O)NCN(C2CC2)c2cc(CCc3ccc4c(c3)N(C3CC3)CNS4(=O)=O)ccc21
